The numbers were not newly measured in paper PMC8131289, “Direct Comparison of the Prediction of the Unbound Brain-to-Plasma Partitioning Utilizing Machine Learning Approach and Mechanistic Neuropharmacokinetic Model” (The AAPS Journal, 2021), which cites them from elsewhere.

Structures are written as SMILES. Like-named read-outs stand apart in the source and are kept apart here.

One data set concerns the target T1, BCRP (Homo sapiens, UniProt Q9UNQ0).
T1 sequence (Q9UNQ0 1-655): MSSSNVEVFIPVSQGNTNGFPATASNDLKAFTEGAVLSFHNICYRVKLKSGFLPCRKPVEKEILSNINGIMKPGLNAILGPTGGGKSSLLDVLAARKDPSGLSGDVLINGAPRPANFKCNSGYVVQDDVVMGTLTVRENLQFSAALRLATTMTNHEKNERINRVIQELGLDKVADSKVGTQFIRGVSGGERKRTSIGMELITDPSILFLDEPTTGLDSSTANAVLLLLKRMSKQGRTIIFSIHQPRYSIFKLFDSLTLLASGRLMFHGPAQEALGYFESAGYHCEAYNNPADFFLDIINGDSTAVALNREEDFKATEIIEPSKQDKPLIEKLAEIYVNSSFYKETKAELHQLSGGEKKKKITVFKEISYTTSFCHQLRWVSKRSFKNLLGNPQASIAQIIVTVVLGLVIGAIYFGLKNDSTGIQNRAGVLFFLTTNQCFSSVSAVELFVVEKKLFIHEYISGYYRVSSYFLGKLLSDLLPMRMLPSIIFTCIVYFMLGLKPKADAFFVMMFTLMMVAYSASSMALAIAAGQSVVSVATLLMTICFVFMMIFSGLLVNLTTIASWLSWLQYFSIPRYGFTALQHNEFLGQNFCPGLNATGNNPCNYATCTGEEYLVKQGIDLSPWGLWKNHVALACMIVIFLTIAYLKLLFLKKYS

Another data set concerns the target MDR1 (Homo sapiens, UniProt P08183).
For data set [1] the following is noted: external dataset.
Where [2] appears, read: MDCK-BCRP cells, external dataset, ref (17).
Where [3] appears, read: MDCK-MDR1 cells, external dataset, ref (17).

Sequence of MDR1 (P08183 whole entry): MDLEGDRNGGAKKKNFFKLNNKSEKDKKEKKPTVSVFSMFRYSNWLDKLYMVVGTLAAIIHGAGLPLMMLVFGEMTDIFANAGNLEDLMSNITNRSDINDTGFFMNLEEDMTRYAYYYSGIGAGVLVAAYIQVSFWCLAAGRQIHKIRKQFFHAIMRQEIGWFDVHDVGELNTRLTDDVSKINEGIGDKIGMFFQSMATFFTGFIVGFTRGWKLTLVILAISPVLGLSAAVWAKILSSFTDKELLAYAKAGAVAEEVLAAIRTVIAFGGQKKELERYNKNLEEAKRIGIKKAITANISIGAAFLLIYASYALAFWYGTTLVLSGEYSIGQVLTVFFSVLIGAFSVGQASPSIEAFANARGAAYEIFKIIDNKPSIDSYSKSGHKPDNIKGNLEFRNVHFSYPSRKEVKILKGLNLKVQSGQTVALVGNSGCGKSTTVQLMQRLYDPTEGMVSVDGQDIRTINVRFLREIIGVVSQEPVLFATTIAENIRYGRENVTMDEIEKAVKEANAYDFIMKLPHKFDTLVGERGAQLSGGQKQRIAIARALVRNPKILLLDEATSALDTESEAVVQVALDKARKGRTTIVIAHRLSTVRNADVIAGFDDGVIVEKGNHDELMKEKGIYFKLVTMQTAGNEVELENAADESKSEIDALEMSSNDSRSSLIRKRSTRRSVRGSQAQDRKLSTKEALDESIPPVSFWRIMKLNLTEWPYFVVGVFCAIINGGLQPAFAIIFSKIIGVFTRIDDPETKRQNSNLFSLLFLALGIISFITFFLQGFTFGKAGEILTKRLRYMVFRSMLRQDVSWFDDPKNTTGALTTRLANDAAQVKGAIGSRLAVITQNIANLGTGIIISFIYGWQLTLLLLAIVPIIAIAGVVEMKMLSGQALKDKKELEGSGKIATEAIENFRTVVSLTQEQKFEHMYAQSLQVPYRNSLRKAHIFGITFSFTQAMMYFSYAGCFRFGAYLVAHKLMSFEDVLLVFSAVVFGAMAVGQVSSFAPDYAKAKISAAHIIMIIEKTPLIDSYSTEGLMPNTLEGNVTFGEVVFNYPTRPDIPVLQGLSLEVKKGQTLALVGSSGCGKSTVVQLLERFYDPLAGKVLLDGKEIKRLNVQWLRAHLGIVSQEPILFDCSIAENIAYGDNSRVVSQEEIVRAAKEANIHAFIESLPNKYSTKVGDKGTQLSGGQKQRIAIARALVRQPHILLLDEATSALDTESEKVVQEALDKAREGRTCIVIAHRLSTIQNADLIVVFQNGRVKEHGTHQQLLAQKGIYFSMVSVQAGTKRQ

For the compound `Cc1cc(=O)n(-c2ccccc2)n1C` [Antipyrine], the “Efflux ratio BCRP” value on BCRP is given as 0.96. Moreover, on MDR1 (MDCK-MDR1), the “Efflux ratio MDR1” value is reported as 0.91.

As for `CC(NC(C)(C)C)C(=O)c1cccc(Cl)c1` (centres unmarked) [Bupropion], the “Efflux ratio BCRP” value on BCRP (setting [2]) was 0.80. Further, the “Efflux ratio MDR1” value at MDR1 (setting [3]) is 1.2.

For the compound `NC(=O)N1c2ccccc2C=Cc2ccccc21` [Carbamazepine], the “Efflux ratio BCRP” value at BCRP (setting [2]) is on record as 0.88. For the same compound, in data set [1] (ref (30)), the “Kp,uu,brain” value is listed as 0.389. Moreover, the “Efflux ratio MDR1” value on MDR1 (setting [3]) is 1.26.

As for `C#Cc1cccc(Nc2ncnc3cc(OCCOC)c(OCCOC)cc23)c1` [Erlotinib], the “Kp,uu,brain” value in data set [1] (ref (17)) is 0.0614.

Regarding `CNCCC(Oc1ccc(C(F)(F)F)cc1)c1ccccc1` (centres unmarked) [Fluoxetine], in data set [1] (ref (30)), the “Kp,uu,brain” value is on record as 2.14.

`COc1ccc2c(c1)c(CC(=O)O)c(C)n2C(=O)c1ccc(Cl)cc1` [Indomethacin]: the “Efflux ratio BCRP” value on BCRP (setting [2]) is given as 20. On MDR1 (setting [3]), the “Efflux ratio MDR1” value is given as 4.4.

For the compound `CN(C)C(=O)C(CCN1CCC(O)(c2ccc(Cl)cc2)CC1)(c1ccccc1)c1ccccc1` [Loperamide], the “Kp,uu,brain” value in data set [1] (ref (30)) was 0.0244.

Take `CN(Cc1cnc2nc(N)nc(N)c2n1)c1ccc(C(=O)N[C@@H](CCC(=O)O)C(=O)O)cc1` [Methotrexate]: at MDR1 (setting [3]), the “Efflux ratio MDR1” value is reported as 1.42.

In the case of `CN1CCN2c3ncccc3Cc3ccccc3C2C1` (centres unmarked) [Mirtazapine], the “Kp,uu,brain” value in data set [1] (ref (30)) was 1.61.

`CC(C)NCC(O)COc1cccc2[nH]ccc12` (centres unmarked) [Pindolol]: the “Efflux ratio MDR1” value on MDR1 (setting [3]) is reported as 5.4.

Take `CN[C@H]1CC[C@@H](c2ccc(Cl)c(Cl)c2)c2ccccc21` [Sertraline]: at MDR1 (setting [3]), the “Efflux ratio MDR1” value is listed as 0.46.

In the case of `CSc1ccc2c(c1)N(CCC1CCCCN1C)c1ccccc1S2` (centres unmarked) [Thioridazine], at BCRP (setting [2]), the “Efflux ratio BCRP” value was 0.57. Moreover, in data set [1] (ref (30)), the “Kp,uu,brain” value was 1.43. Moreover, the “Efflux ratio MDR1” value at MDR1 (setting [3]) was 2.6.

On to `COc1ccc(C(CN(C)C)C2(O)CCCCC2)cc1` (centres unmarked) [Venlafaxine], for which the “Kp,uu,brain” value in data set [1] (ref (30)) is 1.07.
